These results are taken from paper PMC8348019.

The series in a line: head-to-tail lactamisation of linear tetramer (amino acid/peptoid hybrids) with HATU (1.5 equiv), DIPEA (8 equiv); dropwise addition of linear precursor to HATU solution. As to conditions: the molecule shown is the open-chain precursor; 12-membered ring; DMF; 5.0 mM; 21.0 °C; 30.0 h; 10 steps.

Structures are written as SMILES.

`C=CCN(CC(=O)N[C@@H](Cc1ccccc1)C(=O)O)C(=O)[C@H]1CCCN1C(=O)CNC1CCCCC1` [H-(N-cyclohexyl)Gly-D-Pro-(N-allyl)Gly-Phe-OH]: the ring closure, overall yield stood at 50%.
With `CCCC[C@H](NC(=O)[C@H]1CCCN1C(=O)[C@@H](N)[C@@H](C)CC)C(=O)N[C@@H](Cc1c[nH]c2ccccc12)C(=O)O` [H-Ile-D-Pro-Nle-Trp-OH], the ring closure, overall yield was found to be 22%.
For the compound `CC[C@H](C)[C@H](N)C(=O)N1CCC[C@@H]1C(=O)N[C@@H](COC(C)(C)C)C(=O)N[C@@H](Cc1ccccc1)C(=O)O` [H-Ile-D-Pro-Ser(tBu)-Phe-OH], the ring closure, overall yield is 46%.
Take `CCCC[C@H](NC(=O)[C@H]1CCCN1C(=O)[C@@H](N)CC(C)C)C(=O)N[C@@H](Cc1ccccc1)C(=O)O` [H-Leu-D-Pro-Nle-Phe-OH]: the ring closure, overall yield was determined as 56%.
The value for `CCCC[C@H](NC(=O)[C@H]1CCCN1C(=O)[C@@H](N)CC(C)C)C(=O)N[C@@H](Cc1c[nH]c2ccccc12)C(=O)O` [H-Leu-D-Pro-Nle-Trp-OH] was 36%; that for `CCCC[C@H](NC(=O)[C@H]1CCCN1C(=O)[C@@H](N)Cc1ccccc1)C(=O)N[C@@H](Cc1c[nH]c2ccccc12)C(=O)O` [H-Phe-D-Pro-Nle-Trp-OH] was 38%.
